{"source": "patent US20040156930A1", "about": "“Treating mouth ulcers with patches to speed healing and relieve pain” (priority 2002, published 2004)", "key": {"[1]": {"system": "canker sores (aphthous ulcers)", "conditions": "topical application, reported in literature; cited from earlier work"}, "[2]": {"system": "canker sores (aphthous ulcers)", "experiment": "Inventor's trials of oral patches with licorice root extract or amoxicillin on canker sores", "format": "in vivo, human", "procedure": "For medication to be placed in the patch, any of the above-mentioned antimicrobials, or similar antimicrobials, may be used. […] A preferred quantity of licorice extract in each patch that lasts 1 to 6 hours is 20 to 95 milligrams.\nIn the testing, conventional amoxicillin powder for preparation of oral suspension was used, which includes sugars and other excipients. The sugars act as a binder to the sponge of the oral patch. The oral suspension is massaged into the patch and dried. Preferably, the amoxicillin powder is mixed into a stronger than normal liquid form before being added to the patch."}}}
{"compound": "NC(N)=O.OO", "note": "[carbamide peroxide]", "values": [{"measurement": "healing of canker sores", "setting": "[1]", "value": "reported to speed healing of canker sores"}]}
{"compound": "CN(C)CCOC(c1ccccc1)c1ccccc1", "note": "[diphenhydramine]", "values": [{"measurement": "healing of canker sores", "setting": "[1]", "value": "reported to speed healing of canker sores"}]}
{"compound": "N=C(NCCCCCCNC(=N)NC(=N)Nc1ccc(Cl)cc1)NC(=N)Nc1ccc(Cl)cc1.O=C(O)[C@H](O)[C@@H](O)[C@H](O)[C@H](O)CO.O=C(O)[C@H](O)[C@@H](O)[C@H](O)[C@H](O)CO", "note": "[chlorhexidine gluconate]", "values": [{"measurement": "healing of canker sores", "setting": "[1]", "value": "reported to speed healing of canker sores"}]}
{"compound": "CC1(C)S[C@@H]2[C@H](NC(=O)[C@H](N)c3ccc(O)cc3)C(=O)N2[C@H]1C(=O)O", "note": "[amoxicillin]", "values": [{"measurement": "effectiveness on canker sores", "setting": "[2]; amoxicillin powder for oral suspension on conventional patches", "value": "works quite well"}, {"measurement": "typical duration of each canker sore", "setting": "[2]; in a patch applied for half of the hours, day and night, typically 10-14 days without treatment", "value": "~2", "unit": "days"}, {"measurement": "results of treatment of canker sores", "setting": "[2]; patch keeping medication on or near the sore about half of the hours in a day over 2 days", "value": "nearly always effective"}, {"measurement": "results of treatment of canker sores", "setting": "[2]; troche, gel, paste or liquid applied six times per day for 2 days", "value": "nearly always ineffective"}, {"measurement": "healing of canker sores", "setting": "[1]", "value": "shown effective"}]}
{"compound": "penicillin", "values": [{"measurement": "healing of canker sores", "setting": "[1]", "value": "shown to speed healing of canker sores"}]}
{"compound": "OO", "note": "[hydrogen peroxide]", "values": [{"measurement": "healing of canker sores", "setting": "[1]", "value": "reported to speed healing of canker sores"}]}
